Measured values from ChEMBL document CHEMBL5576052, “Design, synthesis, and biological evaluation of new bis-benzylisoquinoline-based analogues as potential neuromuscular blocking agents” (Bioorg Med Chem Lett, 2024).

How the values were obtained:
Assay type in all cases: functional
Oryctolagus cuniculus [1] = assay: Neuromuscular blocking in rabbit model of propofol-induced anesthesia assessed as onset time at 272.7 nmol/kg by train-of-four response method
Oryctolagus cuniculus [2] = assay: Neuromuscular blocking in rabbit model of propofol-induced anesthesia assessed as time duration of 25 to 75 percent recovery indices at 272.7 nmol/kg by train-of-four response method
Oryctolagus cuniculus [3] = assay: Neuromuscular blocking in rabbit model of propofol-induced anesthesia assessed as maximal blockade at 272.7 nmol/kg by train-of-four response method relative to control
Oryctolagus cuniculus [4] = assay: Neuromuscular blocking in rabbit model of propofol-induced anesthesia assessed as effective blocking time by measuring duration from administration to 25 percent recovery at 272.7 nmol/kg by train-of-four response method
Oryctolagus cuniculus [5] = assay: Neuromuscular blocking in rabbit model of propofol-induced anesthesia assessed as time duration of 25 to 90 percent recovery indices at 272.7 nmol/kg by train-of-four response method
Oryctolagus cuniculus [6] = assay: Neuromuscular blocking in rabbit model of propofol-induced anesthesia assessed as duration of time for maximal blockade at 272.7 nmol/kg by train-of-four response method
Oryctolagus cuniculus [7] = assay: Neuromuscular blocking in rabbit model of propofol-induced anesthesia assessed as duration of time for maximal blockade at 27.27 nmol/kg by train-of-four response method
Oryctolagus cuniculus [8] = assay: Neuromuscular blocking in rabbit model of propofol-induced anesthesia assessed as maximal blockade at 27.27 nmol/kg by train-of-four response method relative to control
Oryctolagus cuniculus [9] = assay: Neuromuscular blocking in rabbit model of propofol-induced anesthesia assessed as onset time at 27.27 nmol/kg by train-of-four response method
Oryctolagus cuniculus [10] = assay: Neuromuscular blocking in rabbit model of propofol-induced anesthesia assessed as time duration of 25 to 75 percent recovery indices at 27.27 nmol/kg by train-of-four response method
Oryctolagus cuniculus [11] = assay: Neuromuscular blocking in rabbit model of propofol-induced anesthesia assessed as effective blocking time by measuring duration from administration to 25 percent recovery at 27.27 nmol/kg by train-of-four response method
Oryctolagus cuniculus [12] = assay: Neuromuscular blocking in rabbit model of propofol-induced anesthesia assessed as time duration of 25 to 90 percent recovery indices at 27.27 nmol/kg by train-of-four response method

## C=CC[N@+]1(CCCOC(=O)CC/C=C/CCC(=O)OCCC[N@@+]2(CC=C)CCc3cc(OC)c(OC)cc3[C@H]2Cc2cc(OC)c(OC)c(OC)c2)CCc2cc(OC)c(OC)cc2[C@H]1Cc1cc(OC)c(OC)c(OC)c1.[Cl-].[Cl-]
Oryctolagus cuniculus [1]
  Time: 1.42 min
Oryctolagus cuniculus [2]
  Time: 13.25 min
Oryctolagus cuniculus [3]
  Emax at 0.2727 µmol/kg: 100%
Oryctolagus cuniculus [4]
  Time: 6.92 min
Oryctolagus cuniculus [5]
  Time: 21.83 min
Oryctolagus cuniculus [6]
  Time: 4.75 min

## CC[N+]1(CCCOC(=O)CC/C=C/CCC(=O)OCCC[N+]2(CC)CCc3cc(OC)c(OC)cc3[C@H]2Cc2cc(OC)c(OC)c(OC)c2)CCc2cc(OC)c(OC)cc2[C@H]1Cc1cc(OC)c(OC)c(OC)c1.[Cl-].[Cl-] (stereo not given in full)
Oryctolagus cuniculus [1]
  Time: 0.75 min
Oryctolagus cuniculus [2]
  Time: 6.42 min
Oryctolagus cuniculus [3]
  Emax at 0.2727 µmol/kg: 100%
Oryctolagus cuniculus [4]
  Time: 14 min
Oryctolagus cuniculus [5]
  Time: 9.67 min
Oryctolagus cuniculus [6]
  Time: 11.75 min

## COc1cc2c(cc1OC)[C@@H](Cc1cc(OC)c(OC)c(OC)c1)[N+](CCCOC(=O)CC/C=C/CCC(=O)OCCC[N+]1(CC3CC3)CCc3cc(OC)c(OC)cc3[C@H]1Cc1cc(OC)c(OC)c(OC)c1)(CC1CC1)CC2.[Cl-].[Cl-] (stereo not given in full)
Oryctolagus cuniculus [1]
  Time: 1.25 min
Oryctolagus cuniculus [2]
  Time: 6.83 min
Oryctolagus cuniculus [3]
  Emax at 0.2727 µmol/kg: 100%
Oryctolagus cuniculus [4]
  Time: 5.17 min
Oryctolagus cuniculus [5]
  Time: 9.58 min
Oryctolagus cuniculus [6]
  Time: 3.67 min

## COc1cc2c(cc1OC)[C@@H](Cc1cc(OC)c(OC)c(OC)c1)[N+](C)(CCC(=O)OCCCCCCOC(=O)CC[N+]1(C)CCc3cc(OC)c(OC)cc3[C@H]1Cc1cc(OC)c(OC)c(OC)c1)CC2.O=S(=O)([O-])c1ccccc1.O=S(=O)([O-])c1ccccc1 (stereo not given in full)
Oryctolagus cuniculus [1]
  Time: 1 min
Oryctolagus cuniculus [2]
  Time: 9.92 min
Oryctolagus cuniculus [3]
  Emax at 0.2727 µmol/kg: 100%
Oryctolagus cuniculus [4]
  Time: 49.83 min
Oryctolagus cuniculus [5]
  Time: 12.17 min
Oryctolagus cuniculus [6]
  Time: 44.92 min

## COc1cc2c(cc1OC)[C@@H](Cc1cc(OC)c(OC)c(OC)c1)[N+](C)(CCC(=O)OCCCOC(=O)CC[N+]1(C)CCc3cc(OC)c(OC)cc3[C@H]1Cc1cc(OC)c(OC)c(OC)c1)CC2.O=S(=O)([O-])c1ccccc1.O=S(=O)([O-])c1ccccc1 (stereo not given in full)
Oryctolagus cuniculus [1]
  Time: 1.08 min
Oryctolagus cuniculus [2]
  Time: 7.92 min
Oryctolagus cuniculus [3]
  Emax at 0.2727 µmol/kg: 100%
Oryctolagus cuniculus [4]
  Time: 9.75 min
Oryctolagus cuniculus [5]
  Time: 9.83 min
Oryctolagus cuniculus [6]
  Time: 7.58 min

## COc1cc2c(cc1OC)[C@@H](Cc1cc(OC)c(OC)c(OC)c1)[N+](C)(CCC(=O)OCC(F)(F)COC(=O)CC[N+]1(C)CCc3cc(OC)c(OC)cc3[C@H]1Cc1cc(OC)c(OC)c(OC)c1)CC2 (stereo not given in full)
Oryctolagus cuniculus [3]
  Emax at 0.2727 µmol/kg: 0%

## COc1cc2c(cc1OC)[C@@H](Cc1cc(OC)c(OC)c(OC)c1)[N@+](CCCOC(=O)CC/C=C/CCC(=O)OCCC[N@@+]1(CC3CCC3)CCc3cc(OC)c(OC)cc3[C@H]1Cc1cc(OC)c(OC)c(OC)c1)(CC1CCC1)CC2.[Cl-].[Cl-]
Oryctolagus cuniculus [1]
  Time: 2 min
Oryctolagus cuniculus [2]
  Time: 8.92 min
Oryctolagus cuniculus [3]
  Emax at 0.2727 µmol/kg: 100%
Oryctolagus cuniculus [4]
  Time: 15.38 min
Oryctolagus cuniculus [5]
  Time: 15.17 min
Oryctolagus cuniculus [6]
  Time: 8.5 min

## COc1cc2c(cc1OC)[C@@H](Cc1cc(OC)c(OC)c(OC)c1)[N+](C)(CCCOC(=O)c1ccccc1-c1ccccc1C(=O)OCCC[N+]1(C)CCc3cc(OC)c(OC)cc3[C@H]1Cc1cc(OC)c(OC)c(OC)c1)CC2 (stereo not given in full)
Oryctolagus cuniculus [3]
  Emax at 0.2727 µmol/kg: 0%

## COc1cc2c(cc1OC)[C@@H](Cc1cc(OC)c(OC)c(OC)c1)[N+](C)(CCC(=O)OCC(C)(C)COC(=O)CC[N+]1(C)CCc3cc(OC)c(OC)cc3[C@H]1Cc1cc(OC)c(OC)c(OC)c1)CC2 (stereo not given in full)
Oryctolagus cuniculus [3]
  Emax at 0.2727 µmol/kg: 0%

## COc1cc2c(cc1OC)[C@@H](Cc1cc(OC)c(OC)c(OC)c1)[N+](C)(CCC(=O)OCC#CC#CCOC(=O)CC[N+]1(C)CCc3cc(OC)c(OC)cc3[C@H]1Cc1cc(OC)c(OC)c(OC)c1)CC2.O=S(=O)([O-])c1ccccc1.O=S(=O)([O-])c1ccccc1 (stereo not given in full)
Oryctolagus cuniculus [1]
  Time: 1.42 min
Oryctolagus cuniculus [2]
  Time: 6.92 min
Oryctolagus cuniculus [3]
  Emax at 0.2727 µmol/kg: 100%
Oryctolagus cuniculus [4]
  Time: 5.83 min
Oryctolagus cuniculus [5]
  Time: 12 min
Oryctolagus cuniculus [6]
  Time: 4.75 min

## COc1cc2c(cc1OC)[C@@H](Cc1cc(OC)c(OC)c(OC)c1)[N+](C)(CCCOC(=O)CC(C)(C)CC(=O)OCCC[N+]1(C)CCc3cc(OC)c(OC)cc3[C@H]1Cc1cc(OC)c(OC)c(OC)c1)CC2.[Cl-].[Cl-] (stereo not given in full)
Oryctolagus cuniculus [1]
  Time: 1.25 min
Oryctolagus cuniculus [2]
  Time: 9.92 min
Oryctolagus cuniculus [3]
  Emax at 0.2727 µmol/kg: 100%
Oryctolagus cuniculus [4]
  Time: 21.58 min
Oryctolagus cuniculus [5]
  Time: 12.58 min
Oryctolagus cuniculus [6]
  Time: 18.75 min

## COc1cc2c(cc1OC)[C@@H](Cc1cc(OC)c(OC)c(OC)c1)[N@@+](C)(CCCOC(=O)CC/C=C/CCC(=O)OCCC[N@@+]1(C)CCc3cc(OC)c(OC)cc3[C@H]1Cc1cc(OC)c(OC)c(OC)c1)CC2
Oryctolagus cuniculus [3]
  Emax at 0.2727 µmol/kg: 0%

## COc1cc2c(cc1OC)[C@@H](Cc1cc(OC)c(OC)c(OC)c1)[N+](C)(CCC(=O)OCC#CCOC(=O)CC[N+]1(C)CCc3cc(OC)c(OC)cc3[C@H]1Cc1cc(OC)c(OC)c(OC)c1)CC2 (stereo not given in full)
Oryctolagus cuniculus [3]
  Emax at 0.2727 µmol/kg: 85%

## COc1cc2c(cc1OC)[C@@H](Cc1cc(OC)c(OC)c(OC)c1)[N+](C)(CCCOC(=O)CCCCC(=O)OCCC[N+]1(C)CCc3cc(OC)c(OC)cc3[C@H]1Cc1cc(OC)c(OC)c(OC)c1)CC2.[Cl-].[Cl-] (stereo not given in full)
Oryctolagus cuniculus [1]
  Time: 0.63 min
Oryctolagus cuniculus [2]
  Time: 6.38 min
Oryctolagus cuniculus [3]
  Emax at 0.2727 µmol/kg: 100%
Oryctolagus cuniculus [7]
  Time: 2 min
Oryctolagus cuniculus [8]
  Emax at 0.02727 µmol/kg: 100%
Oryctolagus cuniculus [4]
  Time: 38 min
Oryctolagus cuniculus [9]
  Time: 2.75 min
Oryctolagus cuniculus [10]
  Time: 9.67 min
Oryctolagus cuniculus [11]
  Time: 5.17 min
Oryctolagus cuniculus [12]
  Time: 11.67 min
Oryctolagus cuniculus [5]
  Time: 8.13 min
Oryctolagus cuniculus [6]
  Time: 35 min

## C=CC[N+]1(CCCOC(=O)CC/C=C/CCC(=O)OCCC[N+]2(CC=C)CCc3cc(OC)c(OC)cc3[C@H]2Cc2cc(OC)c(OC)c(OC)c2)CCc2cc(OC)c(OC)cc2[C@H]1Cc1cc(OC)c(OC)c(OC)c1 (stereo not given in full)
Oryctolagus cuniculus [3]
  Emax at 0.2727 µmol/kg: 92%

## COc1cc2c(cc1OC)[C@@H](Cc1cc(OC)c(OC)c(OC)c1)[N+](C)(CCC(=O)OCCCCOC(=O)CC[N+]1(C)CCc3cc(OC)c(OC)cc3[C@H]1Cc1cc(OC)c(OC)c(OC)c1)CC2.O=S(=O)([O-])c1ccccc1.O=S(=O)([O-])c1ccccc1 (stereo not given in full)
Oryctolagus cuniculus [1]
  Time: 1.25 min
Oryctolagus cuniculus [2]
  Time: 8.17 min
Oryctolagus cuniculus [3]
  Emax at 0.2727 µmol/kg: 100%
Oryctolagus cuniculus [4]
  Time: 23.08 min
Oryctolagus cuniculus [5]
  Time: 13.67 min
Oryctolagus cuniculus [6]
  Time: 18.58 min

## COc1cc2c(cc1OC)[C@@H](Cc1cc(OC)c(OC)c(OC)c1)[N+](C)(CCCOC(=O)Cc1ccc(CC(=O)OCCC[N+]3(C)CCc4cc(OC)c(OC)cc4[C@H]3Cc3cc(OC)c(OC)c(OC)c3)cc1)CC2.[Cl-].[Cl-] (stereo not given in full)
Oryctolagus cuniculus [1]
  Time: 0.92 min
Oryctolagus cuniculus [2]
  Time: 8 min
Oryctolagus cuniculus [3]
  Emax at 0.2727 µmol/kg: 100%
Oryctolagus cuniculus [4]
  Time: 18.08 min
Oryctolagus cuniculus [5]
  Time: 10.83 min
Oryctolagus cuniculus [6]
  Time: 14.83 min

## COc1cc2c(cc1OC)[C@@H](Cc1cc(OC)c(OC)c(OC)c1)[N@+](CCCOC(=O)CC/C=C/CCC(=O)OCCC[N@@+]1(CC3CC3)CCc3cc(OC)c(OC)cc3[C@H]1Cc1cc(OC)c(OC)c(OC)c1)(CC1CC1)CC2.[Cl-].[Cl-]
Oryctolagus cuniculus [1]
  Time: 2 min
Oryctolagus cuniculus [2]
  Time: 5 min
Oryctolagus cuniculus [3]
  Emax at 0.2727 µmol/kg: 45%
Oryctolagus cuniculus [5]
  Time: 7.87 min
Oryctolagus cuniculus [6]
  Time: 2.5 min

## COc1cc2c(cc1OC)[C@@H](Cc1cc(OC)c(OC)c(OC)c1)[N+](C)(CCC(=O)OC/C(Br)=C(\Br)COC(=O)CC[N+]1(C)CCc3cc(OC)c(OC)cc3[C@H]1Cc1cc(OC)c(OC)c(OC)c1)CC2.O=S(=O)([O-])c1ccccc1.O=S(=O)([O-])c1ccccc1 (stereo not given in full)
Oryctolagus cuniculus [1]
  Time: 1 min
Oryctolagus cuniculus [2]
  Time: 6.83 min
Oryctolagus cuniculus [3]
  Emax at 0.2727 µmol/kg: 100%
Oryctolagus cuniculus [4]
  Time: 9.75 min
Oryctolagus cuniculus [5]
  Time: 10.92 min
Oryctolagus cuniculus [6]
  Time: 8.75 min

## CC[N@+]1(CCCOC(=O)CC/C=C/CCC(=O)OCCC[N@@+]2(CC)CCc3cc(OC)c(OC)cc3[C@H]2Cc2cc(OC)c(OC)c(OC)c2)CCc2cc(OC)c(OC)cc2[C@H]1Cc1cc(OC)c(OC)c(OC)c1.[Cl-].[Cl-]
Oryctolagus cuniculus [1]
  Time: 1.08 min
Oryctolagus cuniculus [2]
  Time: 10.58 min
Oryctolagus cuniculus [3]
  Emax at 0.2727 µmol/kg: 100%
Oryctolagus cuniculus [4]
  Time: 14.67 min
Oryctolagus cuniculus [5]
  Time: 15.25 min
Oryctolagus cuniculus [6]
  Time: 11.58 min
